Source: ChEMBL document CHEMBL1201862, “PubChem BioAssay data set” (2004)
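Tested at 5 concentrations; 48 h exposure; 96-well plates; endpoints linearly interpolated, else capped at highest concentration. At the GI50, growth is halved.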 Calls of active or inactive are those of the source. Rule as the data show it: active = GI50 up to about 1.1 µM and inactive = higher.

Legend:
Assay in all cases: NCI tumour cell line growth inhibition, 48 h
[1] = tested on: 786-0
[2] = tested on: A498
[3] = tested on: A549
[4] = tested on: ACHN
[5] = tested on: CAKI-1
[6] = tested on: CCRF-CEM
[7] = tested on: COLO 205
[8] = tested on: DLD-1
[9] = tested on: DMS-114
[10] = tested on: DMS-273
[11] = tested on: EKVX
[12] = tested on: HCC 2998
[13] = tested on: HCT-116
[14] = tested on: HCT-15
[15] = tested on: HL-60
[16] = tested on: HOP-18
[17] = tested on: HOP-62
[18] = tested on: HOP-92
[19] = tested on: HT-29
[20] = tested on: IGROV-1
[21] = tested on: K562
[22] = tested on: KM-20L2
[23] = tested on: KM12
[24] = tested on: LOX IMVI
[25] = tested on: LXFL 529
[26] = tested on: M14
[27] = tested on: M19-MEL
[28] = tested on: MOLT-4
[29] = tested on: Malme-3M
[30] = tested on: NCI-H226
[31] = tested on: NCI-H23
[32] = tested on: NCI-H460
[33] = tested on: NCI-H522
[34] = tested on: OVCAR-3
[35] = tested on: OVCAR-4
[36] = tested on: OVCAR-5
[37] = tested on: OVCAR-8
[38] = tested on: RXF 393
[39] = tested on: RXF 631
[40] = tested on: SF-268
[41] = tested on: SF-295
[42] = tested on: SF-539
[43] = tested on: SK-MEL-28
[44] = tested on: SK-MEL-2
[45] = tested on: SK-MEL-5
[46] = tested on: SK-OV-3
[47] = tested on: SN12C
[48] = tested on: SNB-19
[49] = tested on: SNB-75
[50] = tested on: SNB-78
[51] = tested on: SW-620
[52] = tested on: TK-10
[53] = tested on: U-251
[54] = tested on: UACC-257
[55] = tested on: UACC-62
[56] = tested on: UO-31
[57] = tested on: RPMI-8226
[58] = tested on: SR
[59] = tested on: XF498

With `Cc1ccccc1-n1c(C)nc(-c2ccccc2)cc1=O` the GI50 [1] was > 100 µM (inactive), the GI50 [2] was > 100 µM (inactive) and the GI50 [3] was > 100 µM (inactive). The GI50 [4] was > 100 µM (inactive), the GI50 [5] was > 100 µM (inactive) and the GI50 [6] was > 100 µM (inactive). The GI50 [7] was > 100 µM (inactive), the GI50 [8] was > 100 µM (inactive) and the GI50 [9] was > 100 µM (inactive). For the same molecule, the GI50 [10] was > 100 µM (inactive), the GI50 [11] was > 100 µM (inactive) and the GI50 [12] was > 100 µM (inactive). For the same molecule, the GI50 [13] was > 100 µM (inactive), the GI50 [14] was > 100 µM and the GI50 [15] was > 100 µM (inactive). For the same molecule, the GI50 [16] was > 100 µM (inactive), the GI50 [17] was > 100 µM (inactive) and the GI50 [18] was > 100 µM (inactive). For the same molecule, the GI50 [19] was > 100 µM (inactive), the GI50 [20] was > 100 µM (inactive) and the GI50 [21] was > 100 µM (inactive). For the same molecule, the GI50 [22] was > 100 µM (inactive), the GI50 [23] was > 100 µM (inactive) and the GI50 [24] was > 100 µM (inactive). The GI50 [25] was > 100 µM (inactive), the GI50 [26] was > 100 µM (inactive) and the GI50 [27] was > 100 µM (inactive). For the same molecule, the GI50 [28] was > 100 µM (inactive), the GI50 [29] was > 100 µM (inactive) and the GI50 [30] was > 100 µM (inactive). The GI50 [31] was > 100 µM (inactive), the GI50 [32] was > 100 µM (inactive) and the GI50 [33] was > 100 µM (inactive). For the same molecule, the GI50 [34] was > 100 µM (inactive), the GI50 [35] was > 100 µM (inactive) and the GI50 [36] was > 100 µM (inactive). The GI50 [37] was > 100 µM (inactive), the GI50 [38] was > 100 µM (inactive) and the GI50 [39] was > 100 µM (inactive). The GI50 [40] was > 100 µM (inactive), the GI50 [41] was > 100 µM (inactive) and the GI50 [42] was > 100 µM (inactive). The GI50 [43] was > 100 µM (inactive), the GI50 [44] was > 100 µM (inactive) and the GI50 [45] was > 100 µM (inactive). For the same molecule, the GI50 [46] was > 100 µM (inactive), the GI50 [47] was > 100 µM (inactive) and the GI50 [48] was > 100 µM (inactive). For the same molecule, the GI50 [49] was 37.7 µM (inactive), the GI50 [50] was > 100 µM (inactive) and the GI50 [51] was > 100 µM (inactive). For the same molecule, the GI50 [52] was > 100 µM (inactive), the GI50 [53] was > 100 µM (inactive) and the GI50 [54] was > 100 µM (inactive). For the same molecule, the GI50 [55] was > 100 µM (inactive) and the GI50 [56] was > 100 µM (inactive).
`COC[C@@H](/N=C/N1CCc2cc(OC)c(OC)cc2C1)C(C)(C)C` was tested, and the GI50 [1] was > 100 µM (inactive), the GI50 [3] was > 100 µM (inactive) and the GI50 [4] was > 100 µM (inactive). The GI50 [5] was > 100 µM (inactive), the GI50 [6] was > 100 µM (inactive) and the GI50 [7] was > 100 µM (inactive). For the same molecule, the GI50 [8] was > 100 µM (inactive), the GI50 [9] was > 100 µM (inactive) and the GI50 [11] was > 100 µM (inactive). The GI50 [13] was > 100 µM (inactive), the GI50 [14] was > 100 µM and the GI50 [15] was > 100 µM (inactive). For the same molecule, the GI50 [16] was > 100 µM (inactive), the GI50 [17] was > 100 µM (inactive) and the GI50 [18] was > 100 µM (inactive). The GI50 [19] was > 100 µM (inactive), the GI50 [20] was > 100 µM (inactive) and the GI50 [21] was > 100 µM (inactive). For the same molecule, the GI50 [22] was > 100 µM (inactive), the GI50 [23] was > 100 µM (inactive) and the GI50 [25] was > 100 µM (inactive). For the same molecule, the GI50 [26] was > 100 µM (inactive), the GI50 [27] was > 100 µM (inactive) and the GI50 [28] was > 100 µM (inactive). For the same molecule, the GI50 [29] was > 100 µM (inactive), the GI50 [30] was > 100 µM (inactive) and the GI50 [31] was > 100 µM (inactive). For the same molecule, the GI50 [32] was > 100 µM (inactive), the GI50 [33] was > 100 µM (inactive) and the GI50 [34] was > 100 µM (inactive). The GI50 [35] was > 100 µM (inactive), the GI50 [37] was > 100 µM (inactive) and the GI50 [57] was > 100 µM (inactive). The GI50 [38] was > 100 µM (inactive), the GI50 [39] was > 100 µM (inactive) and the GI50 [40] was > 100 µM (inactive). The GI50 [41] was > 100 µM (inactive), the GI50 [42] was > 100 µM (inactive) and the GI50 [43] was > 100 µM (inactive). The GI50 [45] was > 100 µM (inactive), the GI50 [46] was > 100 µM (inactive) and the GI50 [47] was > 100 µM (inactive). For the same molecule, the GI50 [48] was > 100 µM (inactive), the GI50 [49] was > 100 µM (inactive) and the GI50 [58] was > 100 µM (inactive). For the same molecule, the GI50 [51] was > 100 µM (inactive), the GI50 [52] was > 100 µM (inactive) and the GI50 [53] was > 100 µM (inactive). The GI50 [54] was > 100 µM (inactive), the GI50 [55] was > 100 µM (inactive) and the GI50 [56] was > 100 µM (inactive). The GI50 [59] was > 100 µM (inactive).
